# Measurements: US20150148377A1, “Quinoline Derivatives” (NOVARTIS AG, priority 2011, published 2015)
# Assays:
# [1] = molecular target: T1, PI3K alpha (Homo sapiens, UniProt P42336); assay: Enzymatic PI3K alpha isoform inhibition (lipid kinase activity, Kinase-Glo); type: biochemical; conditions: enzymatic assay
# T1 construct: His tag (C); made in house; host or cells: baculovirus; Tn5 (Trichoplusia ni) or TiniPro insect cells
# Outline: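 Lipid kinase reaction with 10 nM PI3Kα, 1 μM ATP and 10 μg/mL phosphatidylinositol in pH 7.5 Tris with MgCl2, NaCl, CHAPS and DTT, run 60 min at room temperature. Remaining ATP read by Kinase-Glo luminescence. IC50 from 8-point 4-parameter logistic fits.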
# [2] = molecular target: T2, human phosphoinositide-3 kinase (PI3K) delta (Homo sapiens, UniProt O00329); assay: PI3K-mediated Akt 1/2 (S473) phosphorylation in Rat-1 cells (Cell PI3Kδ); type: cell-based; conditions: Rat-1 cells overexpressing myristoylated human PI3K delta; p-Akt (Ser473)
# T2 construct: myristoylation signal (myristoylated form); expressed in transfected cells
# Procedure: 2.1 Phosphoinositide-3 kinase (PI3K)-mediated Akt 1/2 (S473) phosphorylation in Rat-1 cells
# Rat-1 cells stably overexpressing a myristoylated form of the catalytic subunit of human phosphoinositide-3 kinase (PI3K) alpha, beta or delta were plated in 384-well plates at a density of 7500 (PI3K alpha), 6200 (PI3K beta), or 4000 (PI3K delta) cells in 30 ul complete growth medium (Dulbecco's modified Eagle's medium (DMEM high glucose) supplemented with 10% (v/v) fetal bovine serum, 1% (v/v) MEM non essential amino acids, 10 mM HEPES, 2 mM L-glutamine, 10 μg/mL puromycin and 1% (v/v) Penicillin/Streptomycin) and were incubated at […]/5% CO2/95% humidity for 24 h. Compounds were diluted in 384-well compound plates to obtain 8-point serial dilutions for 40 test compounds in 90% DMSO, as well as 4 reference compounds plus 16 high controls and 16 low (inhibited) controls. Predilution plates were prepared by dispensing pipetting 250 nl of compound solutions into 384-well polypropylen plates using a Hummingwell nanoliter dispensor. Compounds were prediluted by the addition of 49.75 ul complete growth medium. 10 ul of prediluted compound solution were transferred to the cell plate using a 384-well pipettor, resulting in a final DMSO concentration of 0.11%. Cells were incubated for 1 h at […]/5% CO2/95% humidity. The supernatant was removed, the cells were lysed in 20 ul of lysis buffer for AlphaScreen® SureFire® detection.
# For detection of p-AKT(Ser473), the SureFire® p-Akt 1/2 (Ser473) Assay Kit (PerkinElmer, U.S.A) was used. 5 ul of cell lysate was transferred to 384-well low volume Proxiplates for detection using a 384-well pipettor. Addition of AlphaScreen® SureFire® reagents was done according to the manufacturer's protocol. First, 5 ul of reaction buffer plus activation buffer mix containing AlphaScreen® acceptor beads was added, the plate was sealed, and incubated on a plate shaker for 2 hours at room temperature. Second, 2 ul of dilution buffer containing AlphaScreen® donor beads was added, and the plate was incubated on plate shaker as above for a further 2 hours. The plate was read on an AlphaScreen® compatible plate reader, using standard AlphaScreen® settings.
# T1 sequence (P42336 with tags, fused parts or gaps limits assumed): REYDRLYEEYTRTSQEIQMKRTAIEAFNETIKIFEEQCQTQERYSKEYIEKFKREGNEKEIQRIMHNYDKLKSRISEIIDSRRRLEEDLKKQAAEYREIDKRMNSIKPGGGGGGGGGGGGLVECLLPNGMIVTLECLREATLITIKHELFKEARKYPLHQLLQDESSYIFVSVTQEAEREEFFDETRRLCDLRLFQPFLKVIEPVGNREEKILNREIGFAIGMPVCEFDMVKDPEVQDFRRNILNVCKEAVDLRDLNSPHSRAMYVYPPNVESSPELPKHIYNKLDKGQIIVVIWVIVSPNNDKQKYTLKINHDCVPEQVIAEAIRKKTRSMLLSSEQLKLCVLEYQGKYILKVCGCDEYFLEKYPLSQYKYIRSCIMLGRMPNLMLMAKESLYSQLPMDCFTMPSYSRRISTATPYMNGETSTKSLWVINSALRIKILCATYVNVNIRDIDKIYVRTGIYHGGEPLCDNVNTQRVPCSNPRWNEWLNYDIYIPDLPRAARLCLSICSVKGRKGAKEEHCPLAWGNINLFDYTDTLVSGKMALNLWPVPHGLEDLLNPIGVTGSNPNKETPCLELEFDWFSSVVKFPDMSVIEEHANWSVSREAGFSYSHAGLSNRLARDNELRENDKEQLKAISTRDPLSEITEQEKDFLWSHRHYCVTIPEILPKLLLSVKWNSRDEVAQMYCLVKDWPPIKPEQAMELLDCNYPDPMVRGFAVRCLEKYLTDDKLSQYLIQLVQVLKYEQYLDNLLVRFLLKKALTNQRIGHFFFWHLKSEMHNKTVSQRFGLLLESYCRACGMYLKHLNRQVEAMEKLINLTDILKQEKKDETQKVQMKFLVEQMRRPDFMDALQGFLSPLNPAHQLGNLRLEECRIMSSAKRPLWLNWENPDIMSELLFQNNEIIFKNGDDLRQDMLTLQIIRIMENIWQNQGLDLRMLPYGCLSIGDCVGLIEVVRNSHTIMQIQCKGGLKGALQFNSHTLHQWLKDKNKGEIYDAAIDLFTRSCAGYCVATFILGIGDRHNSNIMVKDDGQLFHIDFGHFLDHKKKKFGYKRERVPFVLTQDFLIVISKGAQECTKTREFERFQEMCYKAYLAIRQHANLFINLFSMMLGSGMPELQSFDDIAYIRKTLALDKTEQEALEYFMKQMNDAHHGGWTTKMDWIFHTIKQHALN
# T2 sequence (O00329 whole entry): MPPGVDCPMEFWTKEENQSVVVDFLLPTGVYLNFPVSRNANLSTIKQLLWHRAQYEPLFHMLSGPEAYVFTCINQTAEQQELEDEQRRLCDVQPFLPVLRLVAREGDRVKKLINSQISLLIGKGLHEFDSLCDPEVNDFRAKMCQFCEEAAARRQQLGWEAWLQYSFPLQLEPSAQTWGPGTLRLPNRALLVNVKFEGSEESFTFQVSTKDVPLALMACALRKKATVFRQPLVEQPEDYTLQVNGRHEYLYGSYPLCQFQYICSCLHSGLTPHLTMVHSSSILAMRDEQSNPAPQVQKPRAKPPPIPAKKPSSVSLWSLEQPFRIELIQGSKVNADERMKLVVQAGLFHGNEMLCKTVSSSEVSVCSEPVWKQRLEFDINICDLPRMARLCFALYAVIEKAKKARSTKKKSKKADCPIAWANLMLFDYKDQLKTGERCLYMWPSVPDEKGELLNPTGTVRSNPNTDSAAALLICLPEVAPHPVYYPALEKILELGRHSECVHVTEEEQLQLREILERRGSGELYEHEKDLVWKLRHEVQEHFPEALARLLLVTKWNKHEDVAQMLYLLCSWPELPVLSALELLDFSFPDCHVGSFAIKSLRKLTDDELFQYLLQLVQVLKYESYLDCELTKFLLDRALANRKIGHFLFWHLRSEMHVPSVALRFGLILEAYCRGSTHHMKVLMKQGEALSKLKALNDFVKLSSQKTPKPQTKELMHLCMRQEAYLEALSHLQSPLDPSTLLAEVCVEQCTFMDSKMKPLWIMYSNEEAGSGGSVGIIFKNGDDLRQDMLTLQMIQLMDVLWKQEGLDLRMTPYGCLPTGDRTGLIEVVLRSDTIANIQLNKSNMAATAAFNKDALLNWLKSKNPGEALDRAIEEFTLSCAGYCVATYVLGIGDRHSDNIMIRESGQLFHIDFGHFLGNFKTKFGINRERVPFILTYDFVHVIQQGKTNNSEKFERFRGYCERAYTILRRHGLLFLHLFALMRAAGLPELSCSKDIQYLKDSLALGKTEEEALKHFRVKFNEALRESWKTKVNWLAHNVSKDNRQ
# T2 sequence (Q63787 whole entry partner): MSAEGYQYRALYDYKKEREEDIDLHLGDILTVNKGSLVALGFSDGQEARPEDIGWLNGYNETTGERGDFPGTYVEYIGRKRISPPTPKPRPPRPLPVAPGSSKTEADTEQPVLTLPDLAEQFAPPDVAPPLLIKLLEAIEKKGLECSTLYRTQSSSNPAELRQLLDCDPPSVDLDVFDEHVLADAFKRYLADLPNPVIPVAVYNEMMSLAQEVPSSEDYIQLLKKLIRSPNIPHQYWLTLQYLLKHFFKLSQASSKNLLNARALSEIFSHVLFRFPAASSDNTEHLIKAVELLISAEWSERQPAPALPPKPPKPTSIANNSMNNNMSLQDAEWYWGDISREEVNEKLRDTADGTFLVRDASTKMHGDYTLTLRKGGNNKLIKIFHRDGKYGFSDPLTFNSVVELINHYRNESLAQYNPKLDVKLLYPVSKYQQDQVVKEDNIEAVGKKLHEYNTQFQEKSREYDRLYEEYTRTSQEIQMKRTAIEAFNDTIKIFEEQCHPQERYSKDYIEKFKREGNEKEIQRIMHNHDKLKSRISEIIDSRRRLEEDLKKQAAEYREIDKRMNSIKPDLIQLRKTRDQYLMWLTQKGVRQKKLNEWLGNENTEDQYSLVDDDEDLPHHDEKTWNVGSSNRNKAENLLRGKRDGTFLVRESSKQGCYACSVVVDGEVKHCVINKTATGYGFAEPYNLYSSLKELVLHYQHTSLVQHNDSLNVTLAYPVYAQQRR
Structure (SMILES),IC50 [1],IC50 [2]
"Cc1cc(-c2ccnc3cc(F)c(O[C@H]4CCN(C(=O)C5CCOCC5)C4)cc23)cnc1S(C)(=O)=O [Example C2, {(S)-3-[7-Fluoro-4-(6-methanesulfonyl-5-methyl-pyridin-3-yl)-quinolin-6-yloxy]-pyrrolidin-1-yl}-(tetrahydro-pyran-4-yl)-methanone]",5680 nM,116 nM
"COc1ncc(-c2ccnc3cc(F)c(O[C@H]4CCN(C(=O)C5CCS(=O)(=O)CC5)C4)cc23)cc1C [Example C1, (1,1-Dioxo-hexahydro-1lambda*6*-thiopyran-4-yl)-{(S)-3-[7-fluoro-4-(6-methoxy-5-methyl-pyridin-3-yl)-quinolin-6-yloxy]-pyrrolidin-1-yl}-methanone]",3110 nM,246 nM
"COc1ncc(-c2ccnc3ccc(O[C@H]4CCN(C(=O)[C@@H]5CCN(C(C)=O)C5)C4)cc23)cc1C(F)F [Example A24, 1-((R)-3-{(S)-3-[4-(5-Difluoromethyl-6-methoxy-pyridin-3-yl)-quinolin-6-yloxy]-pyrrolidine-1-carbonyl}-pyrrolidin-1-yl)-ethanone]",67 nM,14 nM
"COc1ncc(-c2ccnc3ccc(O[C@H]4CCN(C(=O)C5CCS(=O)(=O)CC5)C4)c(C)c23)cc1C [Example B3, (1,1-Dioxo-hexahydro-1lambda*6*-thiopyran-4-yl)-{(S)-3-[4-(6-methoxy-5-methyl-pyridin-3-yl)-5-methyl-quinolin-6-yloxy]-pyrrolidin-1-yl}-methanone]",498 nM,105 nM
"COc1ncc(-c2ccnc3ccc(O[C@H]4CCN(C(=O)C5CCS(=O)(=O)CC5)C4)cc23)cc1Cl [Example A1, {(S)-3-[4-(5-Chloro-6-methoxy-pyridin-3-yl)-quinolin-6-yloxy]-pyrrolidin-1-yl}-(1,1-dioxo-hexahydro-1lambda*6*-thiopyran-4-yl)-methanone]",77 nM,32 nM
"COc1ncc(-c2ccnc3ccc(O[C@H]4CCN(C(=O)C5CCS(=O)(=O)CC5)C4)cc23)cc1C [Example A15, (1,1-Dioxo-hexahydro-1lambda*6*-thiopyran-4-yl)-{(S)-3-[4-(6-methoxy-5-methyl-pyridin-3-yl)-quinolin-6-yloxy]-pyrrolidin-1-yl}-methanone]",186 nM,52 nM
"COc1ncc(-c2ccnc3ccc(O[C@H]4CCN(C(=O)[C@@H]5CCN(C(C)=O)C5)C4)cc23)cc1C [Example A10, 1-((R)-3-{(S)-3-[4-(6-Methoxy-5-methyl-pyridin-3-yl)-quinolin-6-yloxy]-pyrrolidine-1-carbonyl}-pyrrolidin-1-yl)-ethanone]",1360 nM,16 nM
"COc1ncc(-c2ccnc3ccc(O[C@H]4CCN(C(=O)C5CCS(=O)(=O)CC5)C4)cc23)cc1C(F)F [Example A6, {(S)-3-[4-(5-Difluoromethyl-6-methoxy-pyridin-3-yl)-quinolin-6-yloxy]-pyrrolidin-1-yl}-(1,1-dioxo-hexahydro-1lambda*6*-thiopyran-4-yl)-methanone]",53 nM,78 nM
"COc1ncc(-c2ccnc3ccc(O[C@H]4CCN(C(=O)[C@@H]5CCN(C(C)=O)C5)C4)c(C)c23)cc1C(F)F [Example B1, 1-((R)-3-{(S)-3-[4-(5-Difluoromethyl-6-methoxy-pyridin-3-yl)-5-methylquinolin-6-yloxy]-pyrrolidine-1-carbonyl}-pyrrolidin-1-yl)-ethanone]",63 nM,14 nM
"CCC(=O)N1CC[C@H](Oc2ccc3nccc(-c4cnc(S(C)(=O)=O)c(C)c4)c3c2)C1 [Example A25, 1-{(S)-3-[4-(6-Methanesulfonyl-5-methyl-pyridin-3-yl)-quinolin-6-yloxy]-pyrrolidin-1-yl}-propan-1-one]",821 nM,260 nM
